Reference: patent publication US20010025038A1, “Method of reducing craving in mammals” (priority 1997, published 2001)

Legend:
primate = primate model of food craving and relapse after food restriction; assay type: in vivo
From the text: (§1) While not wishing to be bound by any theory, D1/D5 antagonists and/or D1/D5 partial agonists may prevent dietary relapse in the treatment of obesity by blocking the rewarding effects of dopamine at the D1/D5 sites associated with cravings.

[1] = up to 3 mg/k; cited from earlier work
rodent = rodent model of food craving and relapse after food restriction; assay type: in vivo
From the text: as §1

[2] = test system: cocaine-dependent patients; assay: multi-center double blind study in cocaine-dependent patients, interim analysis (Example 6); assay type: in vivo
monkeys = monkeys administered SCH 39166; cited from earlier work
[3] = test system: people who previously had exhibited a cocaine addiction; assay type: in vivo, humans
Method: In a double-blind study, the subjects were administered placebo 10 mg of SCH39166, 25 mg of SCH 39166, or 100 mg of SCH 39166 two hours prior to an injection of […] of cocaine. Systolic and diastolic blood pressure in the individuals was measured from 2 hours prior to cocaine injection until approximately 4 hours after cocaine administration.
In the same study, the desire to take cocaine was measured as a function of time after administration of placebo or varying doses of SCH 39166. The desire to take cocaine was measured by the Visual Analog Scale test. This test procedure is described in the British Journal of Medical Psychology, Volume 47. pp 211-218 (1974). In this test the individuals are asked to subjectively rate their feelings to take cocaine on a scale of zero-100, with zero representing no desire at all and 100 representing the strongest feelings. As may be seen in FIG. 7, the euphoric “high” following cocaine administration was lower in patients who had been pre-treated with SCH 39166, particularly a dose of 100 mg.
Even if the compounds of this invention were effective in reducing craving to abused substances or food, individuals would be unlikely to take the craving-reducing drugs unless they had tolerable side effects. […] Therefore, usage of this compound should not be adversely affected by negative opinions of the individuals to whom the drug is administered nor should it cause stimulation following administration.

[4] = test system: cocaine-dependent patients; assay: multi-center double blind study in cocaine-dependent patients, interim analysis (Example 6); assay type: in vivo; conditions: for Patients with Weight Loss ≧5 lb. / Weight Change: patients completing ≧28 days of treatment
Method: In a multi-center double blind study an interim analysis had been conducted on approximately 160 cocaine-dependent patients who had been given daily doses of 10 mg, 25 or 100 mg of SCH39166 or of a placebo over a test period of eight weeks.
The Body Mass Index (BMI) and the patient weight were measured at the beginning and end of the study. The BMI is determined by the weight (kg)/height^2 (meters). Patients having BMI's of 20.0-24.9 are considered to be of normal weight, while patients having BMI's over 25.0 are considered to be overweight.
Table 1B indicates the percentage of patients with an initial BMI of 22 or less and the percentage of patients with a BMI of at least 26 who lost at least one unit of BMI.

[5] = test system: adult male rats (strain: CD); assay: bar press for food on fixed-ratio schedule FR30 (Example 3); assay type: in vivo
Method: In this example, adult male rats (strain: CD) were trained to bar press for food on a fixed-ratio schedule of 30 (FR30). A rat had to press a bar 30 times in order to receive one 45 mg pellet of food. Each training session was 30 minutes long. The total response rate (total # of bar presses/30 minutes), i.e., the rate at which rats pressed the bar, was measured and then analyzed in animals that were initially given saline (control animals) and then doses of the D1/D5 antagonists SCH23390 or SCH39166. Each group of six animals received one dose of drug given subcutaneously in a volume of 1 ml/kg 30 minutes before the start of the session.

healthy volunteers = assay: crossover d-amphetamine study in healthy volunteers; assay type: in vivo; conditions: 100 mg pretreatment, 15 mg d-amphetamine, vs placebo
Method: Similarly, in a second crossover study in healthy volunteers administered 15 mg d-amphetamine following pretreatment with 100 mg SCH 39166 or placebo, attenuation of amphetamine euphoric (FIG. 12) and dysphoric (FIG. 13) effects were also observed for SCH 39166 in comparison with the placebo.

[6] = cocaine relapse model; cited from earlier work
ob/ob mice = assay: food intake in genetically obese ob/ob mice (Example 4); assay type: in vivo; conditions: 3.0 mg/kg ip, p<0.02
Method: Twenty four male mice of a genetically obese strain, i.e. ob/ob mice, aged 16 weeks were individually housed in Nalgene metabolism cages in a reverse light cycle room for the entire duration of the study. Mice were allowed food and water ad libitum. The mice were divided into 5 groups of 4-5 mice each based on baseline food intake and body weight. Mice were dosed intraperitoneally (ip) with vehicle, 0.003, 0.03, 0.3, or 3.0 mg/kg SCH 39166 at the onset of the dark cycle and a known mass of standard rodent chow was provided. Food consumption was measured after five hours, and another ip injection of vehicle or drug was given. Food intake was measured again at 24 hours after the initial injection. These injections and measurements were continued for 72 hours. Seventy two hour cumulative food intake was decreased 17% at 3.0 mg/kg (p<0.02).

male CF-1 mice = assay: cocaine induced locomotor stimulation in mice (Example 1); assay type: in vivo; conditions: for cocaine induced increase in locomotor activity: oral dose 20 minutes before cocaine sc; for locomotor activity, drug administered alone: oral dose, 8 minute period
Method: Cocaine-produced increases in locomotor activity were blocked by D1/D5 antagonists, but not by D2/D3 antagonists unless relatively high doses were used. In this example, a selective D1/D5 antagonist, SCH 39166, and a selective D2/D3 antagonist, raclopride, were studied on cocaine induced locomotor stimulation in male CF-1 mice. The mice were given an oral dose of SCH 39166, raclopride or vehicle, followed 20 minutes later by a dose of cocaine or vehicle administered subcutaneously (sc).

[7] = test system: adult male Sprague-Dawley (SD) rats; assay: NPY-stimulated food intake in rats (Example 5); assay type: in vivo; conditions: 3 mpk ip 30 minutes before i.c.v. NPY
Method: In this experiment, a baseline food intake (in grams) was measured at time intervals of 2, 4, or 24 hours following interocerebral ventricular (i.c.v.) administration of neuropeptide “Y” (NPY), a compound that stimulates an animal to consume food. A 3 μg/5 μl volume of NPY was administered to adult male Sprague-Dawley (SD) rats. On test day, three groups of rats (five rats per group) were pretreated with SCH39166 according to the following dosing schedule:
A dose of SCH39166 was injected intraperitoneally (ip). Thirty minutes later, a […] i.c.v. injection of NPY was administered. The control animals received an ip injection of the vehicle methylcellulose. Thirty minutes later, animals received NPY ([…]). A second group received 1 mpk of SCH39166 ip, and thirty minutes later received […] of NPY. A third group of animals received 3 mpk of SCH39166 ip and thirty minutes later received […] of NPY. Food intake was measured 2 hours, 4 hours, and 24 hours following NPY administration.

[8] = in vivo; cited from earlier work
[9] = in vivo; cited from earlier work; remark: listed apart in the source
[10] = daily doses of 10, 25 or 100 mg over eight weeks

CN1CCc2cc(Cl)c(O)cc2[C@H]2c3ccccc3CC[C@@H]21 [SCH 39166, (−)- trans-6,7,7a,8,9,13b-hexahydro-3-chloro-2-hydroxy-N-methyl-5H-benzo [d]-naphtho-[2,1-b]azepine]
relapse associated with the effects of food and environmental cues associated with food (primate): can block the relapse
effect on total food intake, meal size or feeding rate [1]: no effect
relapse associated with the effects of food and environmental cues associated with food (rodent): can block the relapse
% of Patients At Least One Day Since Last Cigarette ([2]; 10 mg dose): 57%
% of Patients Abstaining from Alcohol for at Least 1 day ([2]; 25 mg dose): 41%
increase in the dose of cocaine required to restore characteristic self-administration performances (monkeys): ≥ 3 fold
reduction in cocaine desire ([3]; Visual Analog Scale, 100 mg): greatest reduction in cocaine desire
desire to take cocaine ([3]; Visual Analog Scale, compared with placebo): significantly lower
dysphoric effects, such as anxiety, after cocaine administration ([3]; Visual Analog Scale, pre-treated patients): lower
euphoric "high" following cocaine administration ([3]; Visual Analog Scale, pre-treated patients, particularly a dose of 100 mg): lower
"bad drug effects" ([3]; in vivo): not significantly different from the placebo
systolic and diastolic blood pressure elevations caused by cocaine ([3]; in vivo, 30 mg/kg): did not adversely affect
Patients with Weight Loss ≧1 BMI UNIT, Init. BMI ≦22 ([4]; 10 mg daily): 2/9 (22%)
Patients with Weight Loss ≧1 BMI UNIT, Init. BMI ≧26 ([4]; 10 mg daily): 2/10 (20%)
Patients with Weight Loss ≧5 lb. ([4]; 10 mg daily): 27%
Weight Change ([4]; 10 mg daily): −1.4 pounds
% of Patients Abstaining from Alcohol for at Least 1 day ([4]; 10 mg dose): 43%
% of Patients Abstaining from Alcohol for at Least 3 days ([4]; 10 mg dose): 23%
% of Patients At Least 3 Days Since Last Cigarette ([4]; 10 mg dose): 27%
Patients with Weight Loss ≧1 BMI UNIT, Init. BMI ≦22 ([4]; 25 mg daily): 2/10 (20%)
Patients with Weight Loss ≧1 BMI UNIT, Init. BMI ≧26 ([4]; 25 mg daily): 4/13 (30%)
Patients with Weight Loss ≧5 lb. ([4]; 25 mg daily): 22%
Weight Change ([4]; 25 mg daily): −0.9 pounds
% of Patients Abstaining from Alcohol for at Least 3 days ([4]; 25 mg dose): 31%
% of Patients At Least 3 Days Since Last Cigarette ([4]; 25 mg dose): 19%
% of Patients At Least One Day Since Last Cigarette ([4]; 25 mg dose): 53%
Patients with Weight Loss ≧1 BMI UNIT, Init. BMI ≦22 ([4]; 100 mg daily): 1/6 (17%)
Patients with Weight Loss ≧1 BMI UNIT, Init. BMI ≧26 ([4]; 100 mg daily): 10/14 (71%)
Patients with Weight Loss ≧5 lb. ([4]; 100 mg daily): 45%
Weight Change ([4]; 100 mg daily): −3.3 pounds
% of Patients Abstaining from Alcohol for at Least 1 day ([4]; 100 mg dose): 59%
% of Patients Abstaining from Alcohol for at Least 3 days ([4]; 100 mg dose): 48%
% of Patients At Least 3 Days Since Last Cigarette ([4]; 100 mg dose): 17%
% of Patients At Least One Day Since Last Cigarette ([4]; 100 mg dose): 38%
reducing weight in the obese population ([4]; BMI of 26 or greater, particularly at 100 mg/day): especially effective in reducing weight
reducing alcohol consumption [4, 10]: effective
reducing cigarette smoking [4, 10]: effective
reducing cocaine usage [4, 10]: did not show efficacy
reducing weight [4, 10]: effective
reducing cigarette smoking ([4]; low doses): efficacious in reducing cigarette smoking
bar press rate relative to saline-treated control animals ([5]; 0.01 mpk subcutaneously 30 minutes before session, FR30): significantly reduced the bar press rate
response rate across doses ([5]; SCH 23390 0.003-0.03 mpk, SCH 39166 0.001-0.3 mpk, subcutaneously): dose-related decrease in response rate until responses were eliminated at the highest dose
amphetamine dysphoric effects (healthy volunteers): attenuation
amphetamine euphoric effects (healthy volunteers): attenuation
attenuation of cocaine-seeking behavior [6]: able to attenuate the cocaine-seeking behavior
seventy two hour cumulative food intake decrease (ob/ob mice): 17%
cocaine induced increase in locomotor activity (male CF-1 mice): blocked the cocaine induced increase in locomotor activity at all doses of cocaine tested
locomotor activity, drug administered alone (male CF-1 mice): dose dependent decrease in locomotor activity
food intake 2 hours after NPY administration [7]: significant decrease in food intake

O=C(CCCN1CCC(O)(c2ccc(Cl)cc2)CC1)c1ccc(F)cc1 [haloperidol]
adverse side effects [8]: significant adverse side effects, such as dysphoria, restlessness or stiffness

CCN1CCC[C@H]1CNC(=O)c1c(O)c(Cl)cc(Cl)c1OC [raclopride, reference compound]
block of the response-reinstating effects of food reinforcement [9]: sufficient to block the response-reinstating effects of food reinforcement
cocaine induced increase in locomotor activity (male CF-1 mice): only affected the cocaine induced increase in locomotor activity at relatively high doses
locomotor activity, drug administered alone (male CF-1 mice): dose dependent decrease in locomotor activity
